Earlier results as cited in US20160300010A1, “METHOD AND SYSTEM FOR PREDICTING SELECTIVE CANCER DRUG TARGETS” (RAMOT AT TEL-AVIV UNIVERSITY LTD., priority 2011, published 2016).

Tested on: human cancer cells
Conditions: previously shown

In the case of `NC(Cn1ccc(=O)c(O)c1)C(=O)O` (stereo not shown) [Mimosine], the “effect on proliferation of human cancer cells” value is given as “inhibit proliferation of human cancer cells”.
